PubChem BioAssay (NCI)
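Compound exposure: 48 hours, 5 concentrations, 96-well plates. TGI denotes the concentration required for complete inhibition of growth.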

Tests used:
Assay in all cases: growth of human tumour cells (NCI), 48 h
[1] = system: NCI-H522 lung
[2] = system: SNB-75 CNS
[3] = system: M14 melanoma
[4] = system: SF-268 CNS
[5] = system: HL-60(TB) leukemia
[6] = system: SK-MEL-5 melanoma
[7] = system: T-47D breast
[8] = system: MCF7 breast
[9] = system: CCRF-CEM leukemia
[10] = system: ACHN renal
[11] = system: SN12C renal
[12] = system: SK-MEL-28 melanoma
[13] = system: MDA-MB-435
[14] = system: EKVX NSCLC
[15] = system: MOLT-4 leukemia
[16] = system: SW-620 colon
[17] = system: A498 renal
[18] = system: IGROV1 ovarian
[19] = system: MALME-3M melanoma
[20] = system: PC-3 prostate
[21] = system: 786-0 renal
[22] = system: OVCAR-3 ovarian
[23] = system: SK-MEL-2 melanoma
[24] = system: U251 CNS
[25] = system: NCI-H226 lung
[26] = system: UACC-62 melanoma
[27] = system: RPMI-8226 leukemia
[28] = system: A549 NSCLC
[29] = system: HOP-92 NSCLC
[30] = system: UO-31 renal
[31] = system: NCI-H23 lung
[32] = system: KM12 colon
[33] = system: COLO 205 colon
[34] = system: HCC-2998 colon
[35] = system: SNB-19 CNS
[36] = system: HCT-15 colon
[37] = system: OVCAR-8 ovarian
[38] = system: SK-OV-3 ovarian
[39] = system: NCI-H460 lung
[40] = system: SF-539 CNS
[41] = system: RXF 393 renal
[42] = system: CAKI-1 renal
[43] = system: BT-549 breast
[44] = system: LOX IMVI melanoma
[45] = system: HCT-116 colon
[46] = system: NCI/ADR-RES ovarian
[47] = system: TK-10 renal
[48] = system: MDA-MB-231 breast
[49] = system: MDA-N
[50] = system: HS 578T breast
[51] = system: HT29 colon
[52] = system: HOP-62 NSCLC
[53] = system: UACC-257 melanoma
[54] = system: OVCAR-4 ovarian
[55] = system: SF-295 CNS
[56] = system: OVCAR-5 ovarian
[57] = system: K-562 leukemia
[58] = system: DU-145 prostate

`CCCCCCCCCCCCCCCCOCC(Cl)COP(=O)(O)OP(=O)(O)OCC1OC(n2cnc3c(N)ncnc32)C(O)C1O` (stereo unspecified) showed a TGI [1] of over 100 µM, a TGI [2] of 89.7 µM and a TGI [3] of over 100 µM. For the same molecule, the TGI [4] was over 100 µM, the TGI [5] was over 100 µM and the TGI [6] was over 100 µM. For the same molecule, the TGI [7] was over 100 µM, the TGI [8] was over 100 µM and the TGI [9] was over 100 µM. For the same molecule, the TGI [10] was over 100 µM, the TGI [11] was over 100 µM and the TGI [12] was over 100 µM. For the same molecule, the TGI [13] was over 100 µM, the TGI [14] was over 100 µM and the TGI [15] was over 100 µM. It also gave a TGI [16] of over 100 µM, a TGI [17] of over 100 µM and a TGI [18] of over 100 µM. The TGI [19] was over 100 µM, the TGI [20] was 96.8 µM and the TGI [21] was over 100 µM. For the same molecule, the TGI [22] was over 100 µM, the TGI [23] was over 100 µM and the TGI [24] was over 100 µM. It also gave a TGI [25] of over 100 µM, a TGI [26] of over 100 µM and a TGI [27] of over 100 µM. It also gave a TGI [28] of over 100 µM, a TGI [29] of over 100 µM and a TGI [30] of over 100 µM. It also gave a TGI [31] of over 100 µM, a TGI [32] of over 100 µM and a TGI [33] of over 100 µM. It also gave a TGI [34] of over 100 µM, a TGI [35] of over 100 µM and a TGI [36] of over 100 µM. For the same molecule, the TGI [37] was over 100 µM, the TGI [38] was over 100 µM and the TGI [39] was over 100 µM. For the same molecule, the TGI [40] was over 100 µM, the TGI [41] was over 100 µM and the TGI [42] was over 100 µM. It also gave a TGI [43] of over 100 µM, a TGI [44] of over 100 µM and a TGI [45] of over 100 µM. The TGI [46] was over 100 µM, the TGI [47] was over 100 µM and the TGI [48] was over 100 µM. It also gave a TGI [49] of over 100 µM, a TGI [50] of over 100 µM and a TGI [51] of over 100 µM. It also gave a TGI [52] of over 100 µM, a TGI [53] of over 100 µM and a TGI [54] of over 100 µM. The TGI [55] was over 100 µM, the TGI [56] was over 100 µM and the TGI [57] was over 100 µM.
`O=[N+]([O-])c1ccc(NS(=O)(=O)C(F)(F)F)cc1` was tested, and the TGI [1] was over 100 µM, the TGI [2] was over 100 µM and the TGI [3] was over 100 µM. For the same molecule, the TGI [4] was over 100 µM, the TGI [5] was over 100 µM and the TGI [6] was over 100 µM. For the same molecule, the TGI [7] was over 100 µM, the TGI [8] was over 100 µM and the TGI [9] was over 100 µM. The TGI [10] was over 100 µM, the TGI [11] was over 100 µM and the TGI [12] was over 100 µM. For the same molecule, the TGI [13] was over 100 µM, the TGI [14] was over 100 µM and the TGI [15] was over 100 µM. It also gave a TGI [16] of over 100 µM, a TGI [17] of over 100 µM and a TGI [18] of over 100 µM. For the same molecule, the TGI [20] was over 100 µM, the TGI [21] was over 100 µM and the TGI [22] was over 100 µM. The TGI [23] was over 100 µM, the TGI [24] was over 100 µM and the TGI [25] was over 100 µM. The TGI [26] was over 100 µM, the TGI [28] was over 100 µM and the TGI [29] was over 100 µM. For the same molecule, the TGI [30] was over 100 µM, the TGI [31] was over 100 µM and the TGI [32] was over 100 µM. The TGI [33] was over 100 µM, the TGI [58] was over 100 µM and the TGI [35] was over 100 µM. For the same molecule, the TGI [36] was over 100 µM, the TGI [37] was over 100 µM and the TGI [38] was over 100 µM. It also gave a TGI [39] of over 100 µM, a TGI [40] of over 100 µM and a TGI [41] of over 100 µM. It also gave a TGI [42] of over 100 µM, a TGI [43] of over 100 µM and a TGI [44] of over 100 µM. It also gave a TGI [45] of over 100 µM, a TGI [46] of over 100 µM and a TGI [47] of over 100 µM. For the same molecule, the TGI [48] was over 100 µM, the TGI [49] was over 100 µM and the TGI [50] was over 100 µM. For the same molecule, the TGI [51] was over 100 µM, the TGI [52] was over 100 µM and the TGI [53] was over 100 µM. It also gave a TGI [54] of over 100 µM, a TGI [55] of over 100 µM and a TGI [56] of over 100 µM.
